Data from patent US9296741B2, “Bromodomain inhibitors” (priority 2012, dated 2016).
pEC50, pKi: −log10 of the molar value.

How the values were obtained:
[1] = Human liver microsome stability assay; assay type: in vitro ADME; details: both sexes, human, microsomes, pH 7.4
[2] = Rat liver microsome stability assay; assay type: in vitro ADME; details: rat liver microsomes (male Sprague-Dawley), 0.5 μM test compound, 0.25 mg/mL microsomal protein, pH 7.4, 37° C.; read-out: Stability in rat liver microsomes (t1/2 in minutes)
[3] = test system: OPM-2 human multiple myeloma xenograft tumors; test: animal or person; details: Mus musculus
[4] = Mouse liver microsome stability assay; assay type: in vitro ADME; details: male, CD1, mouse, microsomes, pH 7.4
[5] = molecular target: human BRD4 second bromodomain (BDII_E352-M457) (Homo sapiens (Human), UniProt O60885); test: TR-FRET bromodomain binding assay, BRD4 second bromodomain
[6] = molecular target: human BRD4 first bromodomain (BDI_K57-E168) (Homo sapiens (Human), UniProt O60885); test: TR-FRET bromodomain binding assay, BRD4 first bromodomain
[7] = test system: breast cancer cell line MX-1; test: MX-1 cell line proliferation assay; assay type: cell-based, human; details: Homo sapiens, MX1, 72 h; MX-1 cells, 3-day proliferation, Cell Titer Glo; read-out: Cellular proliferation: EC50
[8] = test system: LPS induced IL-6 production; test: LPS (lipopolysaccharide) induced IL-6 production mouse assay; assay type: in vivo; details: 1 h before LPS, serum IL-6 2 h after LPS; for inhibition in vivo at 3 mg/kg: Mus musculus, read-out: Inhibition of LPS induced IL-6 production in Mice, % inhibition at 3 mg/kg, 3 mg/kg oral

SMILES | half-life at 0.5 μM [1] [min] | half-life at 0.5 μM [2] [min] | half-life at 0.5 μM [4] [min] | pKi [5] | pKi [6] | pEC50 [7] | change in vivo at 3 mg/kg ([3]; OPM-2, po, read-out: % TGD (tumor growth delay), OPM-2, 3 mg/kg/day, PO, QDx21, vehicle A) [%] | inhibition in vivo at 3 mg/kg ([3]; OPM-2, po, read-out: % TGI (tumor growth inhibition), OPM-2, 3 mg/kg/day, PO, QDx21, vehicle A) [%] | inhibition in vivo at 3 mg/kg [8] [%] | change in vivo at 1 mg/kg ([3]; OPM-2, iv, read-out: % TGD (tumor growth delay), OPM-2, 1 mg/kg/day, IV, Q4Dx3, vehicle B) [%] | inhibition in vivo at 1 mg/kg ([3]; OPM-2, iv, read-out: % TGI (tumor growth inhibition), OPM-2, 1 mg/kg/day, IV, Q4Dx3, vehicle B) [%] | Inhibition of LPS induced IL-6 production in Mice, % inhibition at 50 mg/kg ([8]; 50 mg/kg oral) [% at 50 mg/kg]
CC(C)C[C@H](NC(=O)[C@H](Cc1ccccc1)NC(=O)c1cnccn1)B(O)O [Bortezomib] |  |  |  |  |  |  |  |  |  | 93 | 80 | 
Cn1cc(-c2cc(CS(C)(=O)=O)ccc2Oc2ccc(F)cc2F)c2cn[nH]c2c1=O [Example 321, 4-{2-(2,4-difluorophenoxy)-5-[(methylsulfonyl)methyl]phenyl}-6-methyl-1,6-dihydro-7H-pyrazolo[3,4-c]pyridin-7-one] | > 120 | 103 | > 120 | 7.49 | 7.48 | 7.46 |  |  | 63 |  |  | 
Cn1cc(-c2cc(S(C)(=O)=O)ccc2Oc2ccc3ncccc3c2)c2cc[nH]c2c1=O [Example 162, 6-methyl-4-[5-(methylsulfonyl)-2-(quinolin-6-yloxy)phenyl]-1,6-dihydro-7H-pyrrolo[2,3-c]pyridin-7-one] | 96 | 41 | 11 | 8.34 | 7.95 | 6.90 |  |  | 41 |  |  | 
CNS(=O)(=O)Nc1ccc(Oc2ccc(F)cc2F)c(-c2cn(C)c(=O)c3[nH]ccc23)c1 [Example 65, N-[4-(2,4-difluorophenoxy)-3-(6-methyl-7-oxo-6,7-dihydro-1H-pyrrolo[2,3-c]pyridin-4-yl)phenyl]-N′-methylsulfuric diamide] | 88 | > 120 | 11 | 8.31 | 7.94 | 7.59 |  |  | 63 |  |  | 
Cn1nc(-c2cc(NS(C)(=O)=O)ccc2Oc2ccc(F)cc2F)c2cc[nH]c2c1=O [Example 159, N-[4-(2,4-difluorophenoxy)-3-(6-methyl-7-oxo-6,7-dihydro-1H-pyrrolo[2,3-d]pyridazin-4-yl)phenyl]methanesulfonamide] | 89 | 107 | 59 | 7.68 | 7.43 | 7.20 |  |  | 58 |  |  | 
CCS(=O)(=O)Nc1ccc(Oc2c(F)cc(F)cc2F)c(-c2cn(C)c(=O)c3[nH]ccc23)c1 [Example 62, N-[3-(6-methyl-7-oxo-6,7-dihydro-1H-pyrrolo[2,3-c]pyridin-4-yl)-4-(2,4,6-trifluorophenoxy)phenyl]ethanesulfonamide] | 64 | 45 | 25 | 8.72 | 8.52 | 8.10 |  |  | 67 |  |  | 
CCS(=O)(=O)c1cnc(Oc2ccc(F)cc2F)c(-c2cn(C)c(=O)c3[nH]ccc23)c1 [Example 294, 4-[2-(2,4-difluorophenoxy)-5-(ethylsulfonyl)pyridin-3-yl]-6-methyl-1,6-dihydro-7H-pyrrolo[2,3-c]pyridin-7-one] | > 120 | > 120 | > 120 | 7.66 | 7.32 | 6.48 |  |  | 79 |  |  | 
Cn1cc(-c2cc(NS(=O)(=O)CC(F)(F)F)ccc2Oc2ccccc2)c2cc[nH]c2c1=O [Example 5, 2,2,2-trifluoro-N-[3-(6-methyl-7-oxo-6,7-dihydro-1H-pyrrolo[2,3-c]pyridin-4-yl)-4-phenoxyphenyl]ethanesulfonamide] | 100 | 6 | 24 | 8.19 | 7.82 | 7.51 |  |  |  |  |  | 74
Cn1cc(-c2cc(S(C)(=O)=O)cnc2Oc2ccc(F)cc2F)c2cc[nH]c2c1=O [Example 288, 4-[2-(2,4-difluorophenoxy)-5-(methylsulfonyl)pyridin-3-yl]-6-methyl-1,6-dihydro-7H-pyrrolo[2,3-c]pyridin-7-one] | 85 | > 120 | > 120 | 7.27 | 7.14 | 6.76 |  |  | 60 |  |  | 

More lines, main results first:

half-life at 0.5 μM [1] [min] | half-life at 0.5 μM [2] [min] | half-life at 0.5 μM [4] [min] | pKi [5] | pKi [6] | pEC50 [7] | SMILES | change in vivo at 3 mg/kg ([3]; OPM-2, po, read-out: % TGD (tumor growth delay), OPM-2, 3 mg/kg/day, PO, QDx21, vehicle A) [%] | inhibition in vivo at 3 mg/kg ([3]; OPM-2, po, read-out: % TGI (tumor growth inhibition), OPM-2, 3 mg/kg/day, PO, QDx21, vehicle A) [%] | inhibition in vivo at 3 mg/kg [8] [%] | change in vivo at 1 mg/kg ([3]; OPM-2, iv, read-out: % TGD (tumor growth delay), OPM-2, 1 mg/kg/day, IV, Q4Dx3, vehicle B) [%] | inhibition in vivo at 1 mg/kg ([3]; OPM-2, iv, read-out: % TGI (tumor growth inhibition), OPM-2, 1 mg/kg/day, IV, Q4Dx3, vehicle B) [%] | Inhibition of LPS induced IL-6 production in Mice, % inhibition at 50 mg/kg ([8]; 50 mg/kg oral) [% at 50 mg/kg]
56 | 36 | 37 | 8.82 | 8.82 | 7.74 | CNS(=O)(=O)c1ccc(OCC2CC2)c(-c2cn(C)c(=O)c3[nH]ccc23)c1 [Example 250, 4-(cyclopropylmethoxy)-N-methyl-3-(6-methyl-7-oxo-6,7-dihydro-1H-pyrrolo[2,3-c]pyridin-4-yl)benzenesulfonamide] | 29 | 42 |  |  |  | 
10 | 19 | 11 | 8.27 | 7.92 | 7.13 | Cn1cc(-c2cc(S(=O)(=O)N3CCOCC3)ccc2OCC2CC2)c2cc[nH]c2c1=O [Example 286, 4-[2-(cyclopropylmethoxy)-5-(morpholin-4-ylsulfonyl)phenyl]-6-methyl-1,6-dihydro-7H-pyrrolo[2,3-c]pyridin-7-one] |  |  | 57 |  |  | 
13 | 16 | 5 | 8.89 | 8.72 | 7.58 | CCS(=O)(=O)c1ccc(O[C@H]2CC[C@@H](OC)CC2)c(-c2cn(C)c(=O)c3[nH]ccc23)c1 [Example 248, 4-{5-(ethylsulfonyl)-2-[(cis-4-methoxycyclohexyl)oxy]phenyl}-6-methyl-1,6-dihydro-7H-pyrrolo[2,3-c]pyridin-7-one] |  |  | 82 |  |  | 
52 | 51 | 45 | 8.02 | 7.78 | 7.07 | Cn1cc(-c2cc(S(C)(=O)=O)ccc2Oc2ccc(F)cc2F)c2cc[nH]c2c1=O [Example 138, 4-[2-(2,4-difluorophenoxy)-5-(methylsulfonyl)phenyl]-6-methyl-1,6-dihydro-7H-pyrrolo[2,3-c]pyridin-7-one] |  |  | 72 |  |  | 
66 | 82 | 25 | 8.89 | 8.27 | 7.56 | CCS(=O)(=O)c1ccc(Oc2ccc(F)cc2F)c(-c2cn(C)c(=O)c3[nH]ccc23)c1 [Example 168, 4-[2-(2,4-difluorophenoxy)-5-(ethylsulfonyl)phenyl]-6-methyl-1,6-dihydro-7H-pyrrolo[2,3-c]pyridin-7-one] |  |  | 70 |  |  | 
33 | > 120 | 72 | 8.17 | 8.43 | 8.20 | Cn1cc(-c2cc(S(C)(=O)=O)ccc2OCC2(C)CC2)c2cc[nH]c2c1=O [Example 231, 6-methyl-4-{2-[(1-methylcyclopropyl)methoxy]-5-(methylsulfonyl)phenyl}-1,6-dihydro-7H-pyrrolo[2,3-c]pyridin-7-one] |  |  | 51 |  |  | 
> 120 | 40 | 23 | 8.80 | 9.08 | 7.73 | Cn1cc(-c2cc(NS(C)(=O)=O)ccc2OC2CCC(F)(F)CC2)c2cc[nH]c2c1=O [Example 59, N-{4-[(4,4-difluorocyclohexyl)oxy]-3-(6-methyl-7-oxo-6,7-dihydro-1H-pyrrolo[2,3-c]pyridin-4-yl)phenyl}methanesulfonamide] |  |  | 54 |  |  | 
29.9 | 12 | 28 | 8.34 | 7.29 | 7.51 | CCS(=O)(=O)c1ccc(N2CCCC2)c(-c2cn(C)c(=O)c3[nH]ccc23)c1 [Example 330, 4-[5-(ethylsulfonyl)-2-(pyrrolidin-1-yl)phenyl]-6-methyl-1,6-dihydro-7H-pyrrolo[2,3-c]pyridin-7-one] |  |  | 45 |  |  | 
73 | 48 | 52 | 8.72 | 8.30 | 7.44 | Cn1cc(-c2cc(S(=O)(=O)C3CC3)ccc2Oc2ccc(F)cc2F)c2cc[nH]c2c1=O [Example 290, 4-[5-(cyclopropylsulfonyl)-2-(2,4-difluorophenoxy)phenyl]-6-methyl-1,6-dihydro-7H-pyrrolo[2,3-c]pyridin-7-one] |  |  | 64 |  |  | 
